Experimental data: US20020137929A1, “1 - (3-heterocyclylphenyl) isothiourea, -isourea, -guanidine and -amidine herbicidal agents” (Intellectual Property Department, BASF Aktiengesellschaft, priority 1998, published 2002)

What was measured:
[1] = system: TRZAWR (Wheat, Winter, cv Riband); test: Preemergence herbicidal evaluation; assay type: in vivo, Triticum aestivum; settings: rated 4-5 weeks after treatment
Summary of the method: (§1)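 Visual 0-9 rating vs control (stand, vigor, malformation, size, chlorosis, overall appearance), scored 4-5 wk after spraying. Seeded soil cups were treated preemergence with compound in aqueous acetone, ~0.0156-0.500 kg/ha equivalent.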

[2] = system: IPOHE (Morningglory, Ivyleaf); test: Preemergence herbicidal evaluation; assay type: in vivo, Ipomoea hederacea; settings: rated 4-5 weeks after treatment
Summary of the method: as §1

[3] = system: CYPSE (Flatsedge); test: Preemergence weed control under flooded paddy conditions; assay type: in vivo, Cyperus serotinus; settings: rated 3-4 weeks after treatment
Summary of the method: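 Flooded-pot preemergence screen with silt loam and seeds in the upper 0.5 cm. Dose about 0.0313 to 0.500 kg/ha, delivered into flood water; visual 0-9 score after 3 to 4 weeks.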

[4] = system: CHEAL (Lambsquarters, Common); test: Preemergence herbicidal evaluation; assay type: in vivo, Chenopodium album; settings: rated 4-5 weeks after treatment
Summary of the method: as §1

[5] = system: ZEAMX (Corn, Field); test: Preemergence herbicidal evaluation; assay type: in vivo, Zea mays; settings: rated 4-5 weeks after treatment
Summary of the method: as §1

[6] = system: CYPIR (Rice Flatsedge); test: Preemergence weed control under flooded paddy conditions; assay type: in vivo, Cyperus iria; settings: rated 3-4 weeks after treatment
Summary of the method: (§2)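 Ratings on a 0-9 visual scale cover stand, vigor, malformation, size, chlorosis and overall appearance relative to a control, taken three to four weeks post-treatment. Application was into flood water over freshly sown silt loam at roughly 0.0313 to 0.500 kg/ha.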

[7] = system: ECHORC (Watergrass (Calif.)); test: Postemergence weed control under flooded paddy conditions; assay type: in vivo, Echinochloa oryzoides; settings: postemergence weeds, 3-4 weeks after treatment
Summary of the method: (§3)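 Flood-water application, about 0.0313–0.500 kg/ha a.i. in aqueous/acetone 50/50 v/v; water depth 1.5–3 cm throughout. Weeds 3–5 cm, rice 1.5–2.5 leaf. Greenhouse; 0–9 visual rating vs control at 3–4 wk.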

[8] = system: CASOB (Sicklepod); test: Postemergence herbicidal evaluation; assay type: in vivo, Cassia obtusifolia
Summary of the method: (§4)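 Young plants, roughly two weeks from seeding, receive the active ingredient as a sprayed dispersion (acetone/water 50/50, 0.5% TWEEN 20) at 40 psi. Doses span about 0.0156 to 0.500 kg/ha. A visual score from 0 to 9 compares treated with control plants four to five weeks on.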

[9] = system: AMBEL (Ragweed, Common); test: Preemergence herbicidal evaluation; assay type: in vivo, Ambrosia artemisifolia; settings: rated 4-5 weeks after treatment
Summary of the method: as §1

[10] = system: GALAP (Galium); test: Postemergence herbicidal evaluation; assay type: in vivo, Galium aparine
Summary of the method: as §4

[11] = system: ZEAMX (Corn, Field); test: Postemergence herbicidal evaluation; assay type: in vivo, Zea mays
Summary of the method: as §4

[12] = system: CYPSE (Flatsedge); test: Postemergence weed control under flooded paddy conditions; assay type: in vivo, Cyperus serotinus; settings: postemergence weeds, 3-4 weeks after treatment
Summary of the method: as §3

[13] = system: ECHORC (Watergrass (Calif.)); test: Preemergence weed control under flooded paddy conditions; assay type: in vivo, Echinochloa oryzoides; settings: rated 3-4 weeks after treatment
Summary of the method: as §2

[14] = system: ORYSAT (Rice, Tebonnet); test: Preemergence herbicidal evaluation; assay type: in vivo, Oryza sativa, (L.) Tebonnet; settings: rated 4-5 weeks after treatment
Summary of the method: as §1

C[C@@H](C(=O)O)N1C(=O)CS/C1=N/c1cc(-n2c(=O)cc(C(F)(F)F)n(C)c2=O)c(F)cc1Cl [Compound 51, 2-{{2-Chloro-5-[3,6-dihydro-3-methyl-2,6-dioxo-4-(trifluoromethyl)-1(2H)-pyrimidinyl]-4-fluoro-phenyl}imino}-α-methyl-4-oxo-3-thiazolidineacetic acid, L-]
7.5: Postemergence herbicidal rating ZEAMX ([11]; Rate 0.0315 kg/ha) | Postemergence herbicidal rating ZEAMX ([11]; Rate 0.0630 kg/ha)
0.0: Preemergence herbicidal rating TRZAWR ([1]; rate 0.0156 kg/ha) | Preemergence herbicidal rating TRZAWR ([1]; rate 0.0313 kg/ha) | Preemergence herbicidal rating TRZAWR ([1]; rate 0.0625 kg/ha) | Herbicidal rating CYPSE ([3]; 0.0625 kg/ha) | Herbicidal rating CYPSE ([3]; 0.1250 kg/ha) | Herbicidal rating CYPSE ([3]; 0.2500 kg/ha) | Herbicidal rating ECHORC ([7]; rate 0.0625 kg/ha) | Herbicidal rating ECHORC ([7]; rate 0.1250 kg/ha) | Herbicidal rating ECHORC ([7]; rate 0.2500 kg/ha) | Preemergence herbicidal rating AMBEL ([9]; rate 0.0156 kg/ha) | Preemergence herbicidal rating AMBEL ([9]; rate 0.0313 kg/ha) | Herbicidal rating CYPSE ([12]; rate 0.0625 kg/ha) | Herbicidal rating CYPSE ([12]; rate 0.1250 kg/ha) | Herbicidal rating CYPSE ([12]; rate 0.2500 kg/ha) | Herbicidal rating ECHORC ([13]; 0.0625 kg/ha) | Herbicidal rating ECHORC ([13]; 0.1250 kg/ha) | Herbicidal rating ECHORC ([13]; 0.2500 kg/ha) | Preemergence herbicidal rating ORYSAT ([14]; rate 0.0156 kg/ha)
2.0: Preemergence herbicidal rating TRZAWR ([1]; rate 0.1250 kg/ha) | Preemergence herbicidal rating IPOHE ([2]; rate 0.0156 kg/ha) | Preemergence herbicidal rating ZEAMX ([5]; rate 0.1250 kg/ha) | Herbicidal rating CYPIR ([6]; 0.0625 kg/ha) | Postemergence herbicidal rating CASOB ([8]; Rate 0.0158 kg/ha) | Postemergence herbicidal rating CASOB ([8]; Rate 0.0315 kg/ha)
3.0: Preemergence herbicidal rating CHEAL ([4]; rate 0.0156 kg/ha) | Herbicidal rating CYPIR ([6]; 0.1250 kg/ha)
7.0: Postemergence herbicidal rating CASOB ([8]; Rate 0.0630 kg/ha) | Postemergence herbicidal rating ZEAMX ([11]; Rate 0.0158 kg/ha) | Preemergence herbicidal rating ORYSAT ([14]; rate 0.2500 kg/ha)
1.0: Preemergence herbicidal rating ZEAMX ([5]; rate 0.0156 kg/ha) | Preemergence herbicidal rating ZEAMX ([5]; rate 0.0313 kg/ha) | Preemergence herbicidal rating ZEAMX ([5]; rate 0.0625 kg/ha) | Preemergence herbicidal rating ORYSAT ([14]; rate 0.0313 kg/ha) | Preemergence herbicidal rating ORYSAT ([14]; rate 0.0625 kg/ha) | Preemergence herbicidal rating ORYSAT ([14]; rate 0.1250 kg/ha)
6.0: Preemergence herbicidal rating TRZAWR ([1]; rate 0.2500 kg/ha) | Preemergence herbicidal rating ZEAMX ([5]; rate 0.2500 kg/ha) | Herbicidal rating CYPIR ([6]; 0.2500 kg/ha)
4.0: Preemergence herbicidal rating AMBEL ([9]; rate 0.0625 kg/ha) | Postemergence herbicidal rating GALAP ([10]; Rate 0.0158 kg/ha)
9.0: Preemergence herbicidal rating IPOHE ([2]; rate 0.0313 kg/ha) | Preemergence herbicidal rating IPOHE ([2]; rate 0.0625 kg/ha) | Preemergence herbicidal rating IPOHE ([2]; rate 0.1250 kg/ha) | Preemergence herbicidal rating IPOHE ([2]; rate 0.2500 kg/ha) | Preemergence herbicidal rating CHEAL ([4]; rate 0.0313 kg/ha) | Preemergence herbicidal rating CHEAL ([4]; rate 0.0625 kg/ha) | Preemergence herbicidal rating CHEAL ([4]; rate 0.1250 kg/ha) | Preemergence herbicidal rating CHEAL ([4]; rate 0.2500 kg/ha) | Preemergence herbicidal rating AMBEL ([9]; rate 0.1250 kg/ha) | Preemergence herbicidal rating AMBEL ([9]; rate 0.2500 kg/ha) | Postemergence herbicidal rating GALAP ([10]; Rate 0.0315 kg/ha) | Postemergence herbicidal rating GALAP ([10]; Rate 0.0630 kg/ha)
